Patent US20050143463A1, “Method of inhibiting angiogenesis” (THE QUEEN ELIZABETH HOSPITAL RESEARCH FOUNDATION INC., priority 2002, published 2005)
Read-outs that look alike come from different tables or passages of the source.

Key:
[1] = tested on: Human umbilical vein endothelial cells (HUVEC); assay: HUVEC proliferation assay (tritiated thymidine uptake); format: cell-based; conditions: for inhibition of HUVEC proliferation in vitro, dose dependent (in words): dose dependent manner
Procedure: Human umbilical vein endothelial cells (HUVEC) were seeded in 96-well flat bottomed tissue culture plates at a density of 2.5-5×10^4 cells/well and treated with various dilutions of agents. Cells were cultured in RPMI medium containing 20% FCS, Penicillin/Streptomycin in a 5% CO2 atmosphere at 37° C. After 24 to 48 hours of incubation, cells were pulsed with 1 μCi of tritiated thymidine for 6 hours. The pulsed cells were trypsinised to detach from the wells and then harvested in a TOMTEC Cell Harvester onto glass fibre filters, which were dried and immersed in scintillation fluid and counted in a Wallac Microbeta scintillation counter. The results were reported as mean cpm±SD.

[2] = tested on: corneal neovascularisation; assay: Mouse corneal vascularisation model (cornea scratched and infected with Pseudomonas aeruginosa 6294); format: in vivo, BALB/c mice; conditions: for vascularisation of the cornea compared to Groups 1 and 2 (photomicrographs): Group 3, 200 μmol/10 μL topical; for Percentage of animals showing vascularisation in the infected eye / animals showing vascularisation in the infected eye (number/total): 12-MTA 200 μmol/10 μL topical, every second day from day 4; for corneal neovascularisation in mice (in words): mouse, in vivo
Excerpt: To induce neovascularisation in the cornea of mice, cornea were scratched and infected with Pseudomonas aeruginosa as essentially described in Cole, N., Willcox, M. D. P., Fleiszig, S. M. J., Stapleton, F., Bao, S., Tout, S., Husband, A. J. (1998) “Different strains of Pseudomonas aeruginosa isolated from ocular infections or inflammation display distinct corneal pathologies in an animal model.” Curr. Eye Res., 17:730-735.
Briefly, stock cultures of P. aeruginosa 6294 stored in 30% glycerol at −70° C. were inoculated into 10 mL of tryptone soya broth (Oxoid Ltd, Sydney, Australia). Cultures were prepared as previously described (Cole et al. (1998) Curr. Eye Res. 17:730-735) and suspended in phosphate buffered saline (PBS) to a concentration of 4×10^8 cfu (colony forming units)/ml. Bacterial concentration was adjusted turbidimetrically and the dose confirmed retrospectively by viable counts.
Inbred 6-8 week old BALB/c mice were anaesthetised with Averin (125 mg/kg, intraperitoneally) and the corneal surfaces of the eyes were incised with a sterile 27 gauge needle. 5 μL of the bacterial suspension (2.0×10^6 cfu) of strain 6294 was pipetted directly onto the wounded cornea of the left eye only. The right eye of each animal served as a control and was scratched but not infected. A minimum of eight mice per treatment group were used.
12-MTA at 200 μmol/10 μL was prepared as an emulsion in unpreserved paraffin and lanolin ophthalmic ointment base (Polyvisc, Alcon, Belgium) for topical application. Animals were divided into three treatment groups: Group 1 received no treatment; Group 2 received 10 μL of vehicle topically to the cornea per treatment to both the challenged and scratch control eye; and Group 3 received 10 μL of the 12-MTA as described above to both the challenged and scratch control eyes. The treatment schedule was begun four days after challenge and then every second day until the termination of the experiment 14 days post-challenge.
Mice were examined prior to bacterial challenge, immediately subsequent to bacterial challenge and 7 and 14 days post-challenge by a masked observer. The animals were anaesthetised for examination as described above and the corneas were examined at 48× magnification under white light using an FS2 photo slit-lamp biomicroscope (Topcon Corporation, Tokyo, Japan). At 7 and 14 days post-challenge, following the white light examination, 1% sodium fluorescein was instilled and the corneas viewed under UV light. Grades of severity of corneal damage were made and measurement of the extent and incursion of vessels into the central cornea were made.
Measurements were examined for significance using non-parametric Kruskal-Wallis and Mann Whitney U analysis.
For histological examination of corneas, mice were sacrificed at 14 days post-challenge. The eyes were immediately enucleated, fixed in neutral buffered formalin and embedded in paraffin. […] sections were cut and stained with haematoxylin and eosin for histopathological examination.

[3] = Aqueous solubility; format: physicochemical
[4] = 50 μM, tritiated thymidine uptake
[5] = 100 μM, tritiated thymidine uptake
[6] = 200 μM, tritiated thymidine uptake
[7] = 400 μM, tritiated thymidine uptake
[8] = 800 μM, tritiated thymidine uptake

Structure (SMILES): CCC(C)CCCCCCCCCCC(=O)O (stereo not shown) [12-MTA, 12-methyltetradecanoic acid]
- % Inhibition of HUVEC proliferation ([1]; 50 μM, percentage of control cells with no added agent (Table 1)): 13.3%
- Average [1, 4]: 18781.3 cpm
- Sample 1 [1, 4]: 19272 cpm
- Sample 2 [1, 4]: 19942 cpm
- Sample 3 [1, 4]: 17130 cpm
- Average [1, 5]: 17593.0 cpm
- Sample 1 [1, 5]: 20367 cpm
- Sample 2 [1, 5]: 16963 cpm
- Sample 3 [1, 5]: 15449 cpm
- Average [1, 6]: 15707.7 cpm
- Sample 1 [1, 6]: 18491 cpm
- Sample 2 [1, 6]: 15435 cpm
- Sample 3 [1, 6]: 13197 cpm
- HUVEC proliferation (in words) ([1]; 400 μM concentration, tritiated thymidine uptake): inhibited
- Average [1, 7]: 12104.7 cpm
- Sample 1 [1, 7]: 12558 cpm
- Sample 2 [1, 7]: 13837 cpm
- Sample 3 [1, 7]: 9919 cpm
- microscopic examination of the cells ([1]; 800 μM): appearance of apoptotic cells
- Average [1, 8]: 9.0 cpm
- Sample 1 [1, 8]: 11 cpm
- Sample 2 [1, 8]: 7 cpm
- Sample 3 [1, 8]: 9 cpm
- inhibition at 50 µM ([1]; Homo sapiens, HUVEC, 50 μM, percentage of control cells with no added agent (Table 1)): 13%
- inhibition at 100 µM ([1]; Homo sapiens, HUVEC, 100 μM, percentage of control cells with no added agent (Table 1)): 18.7%
- inhibition at 200 µM ([1]; Homo sapiens, HUVEC, 200 μM, percentage of control cells with no added agent (Table 1)): 27.5%
- inhibition at 400 µM ([1]; Homo sapiens, HUVEC, 400 μM concentration, percentage of control cells with no added agent (Table 3), read-out: Percentage inhibition of HUVEC proliferation): 32%
- inhibition at 400 µM ([1]; Homo sapiens, HUVEC, 400 μM, percentage of control cells with no added agent (Table 1), read-out: % Inhibition of HUVEC proliferation): 44.1%
- inhibition at 800 µM ([1]; Homo sapiens, HUVEC, 800 μM, percentage of control cells with no added agent (Table 1)): 99%
- inhibition at 100 µM ([1]; Homo sapiens, HUVEC, 24 h, 100 μM 12-MTA, 24 hours (Table 2)): 24.8%
- inhibition at 200 µM ([1]; Homo sapiens, HUVEC, 24 h, 200 μM 12-MTA, 24 hours (Table 2)): 30.2%
- cell viability ([1]; concentrations between 50 to 400 μM): good viability
- inhibition of HUVEC proliferation in vitro, dose dependent (in words) [1]: inhibited in a dose response manner
- inhibition of HUVEC proliferation in vitro, dose dependent (in words) ([1]; listed as 12-methyl tetradecanoic acid): inhibit the proliferation
- effect on scratch control (uninfected) eyes ([2]; 200 μmol/10 μL topical, any time point): does not affect the cornea
- blood vessel formation in the corneal stroma (histological examination) ([2]; 14 days post-challenge, Group 3): reduced blood vessel formation
- vascularisation of the cornea compared to Groups 1 and 2 (photomicrographs) ([2]; Day 7): reduced vascularisation
- Percentage of animals showing vascularisation in the infected eye ([2]; Day 7 post-challenge): 40%
- animals showing vascularisation in the infected eye (number/total) ([2]; Day 7 post-challenge): 4/10
- vascularisation of the cornea compared to Groups 1 and 2 (photomicrographs) ([2]; Day 14): reduced vascularisation
- Percentage of animals showing vascularisation in the infected eye ([2]; Day 14 post-challenge): 50%
- animals showing vascularisation in the infected eye (number/total) ([2]; Day 14 post-challenge): 5/10
- animals with mild ocular response ([2]; Group 3, Day 14 post-challenge): 60%
- animals with severe ocular response ([2]; Group 3, Day 14 post-challenge): 20%
- median score of severity of corneal damage (ocular response) ([2]; Group 3, Day 14 post-challenge): 1.65 (range 0-4)
- animals with a persistent epithelial defect ([2]; Group 3, first examination): 20%
- animals with mild ocular response ([2]; Group 3, first examination): 50%
- animals with severe ocular response ([2]; Group 3, first examination): 10%
- median score of severity of corneal damage (ocular response) ([2]; Group 3, first examination (Day 7 implied, not given)): 2.1 (range 0.54)
- corneal neovascularisation in mice (in words) [2]: inhibited corneal neovascularization
- corneal neovascularisation in mice (in words) ([2]; listed as 12-methlytetradecanoic acid): inhibits corneal neovascularisation
- aqueous solubility [3]: poor
